Data taken from publication PMC4262413, “Importance of Tryptophan in Transforming an Amphipathic Peptide into a Pseudomonas aeruginosa-Targeted Antimicrobial Peptide” (PLoS ONE, 2014).
Converted amounts (≈) assume the structure as drawn. Residues, ends and D or L forms follow the SMILES beside them.

Assays:
[1] = test system: P. aeruginosa ATCC27853 biofilms; test: Biofilm biomass assay and FE-SEM imaging; format: cell-based, Pseudomonas aeruginosa
Protocol: A static abiotic solid surface assay was used to analyze biofilm formation as described before, with minor modification. Briefly, overnight cultures of P. aeruginosa ATCC27853 were diluted 1∶100 in fresh medium, added (500 µL) to wells of 12-well culture plates, and grown for 24 h at 37°C. Planktonic cells and loosely attached cells were removed, and wells were then refilled with 500 µL of fresh broth in the absence or presence of different concentrations of peptides. After incubation the biofilms were stained with 0.1% (w/v) crystal violet. Ethanol (95%, v/v) was added to each well, and absorbance was measured at 600 nm. The experiments were done at least three times in duplicate, and the data was expressed as mean ± standard deviations.
For microscopic observation of the biofilm, sterilized coverslips were placed at the bottom of a 12-well plate. After incubation, cells were fixed with 2.5% glutaraldehyde overnight. The samples were then dehydrated through a graded series of ethanol (50%, 70%, 90%, and 100%), followed by critical–point drying, gold sputtering, and examination using an FE-SEM (Hitachi, Japan).

[2] = test system: E. coli 25922; test: microbe, parasite or virus in culture; format: cell-based, Escherichia coli
Protocol: (§1) Minimal inhibitory concentration (MIC) assays were performed as described previously. Briefly, after incubation overnight in Mueller-Hinton (MH) broth at 37°C, the bacteria were grown to exponential growth phase and diluted to approximately 1×10^5 CFU/ml. The peptides were dissolved in 0.2% bovine serum albumin (BSA) containing 0.01% (v/v) acetic acid, and they were then added to each well of a 96-well plates at a final concentration ranging from 0.25 to 128 µM. Each well contained a total volume of 100 µL (50 µL of inoculums and 50 µL of peptide-containing solution). The MICs were determined as the lowest concentration of peptide that prevented visible turbidity by visual inspection after incubation at 37°C for 16–18 h. Independent experiments were carried out at least three times. Uninoculated MH broth was used as a negative control and cultures without added peptides served as the positive control. Minimal bactericidal concentration (MBC) assay was performed following MIC assay. At the end of MIC assay 10 µL aliquots of the medium were taken from peptide-containing wells with no visible bacterial growth. These are plated on MH agar, incubated for 18 h to allow colony growth. The MBC was defined as the lowest peptide concentration resulting in no bacterial growth in the media. Each assay was performed at least three times.

[3] = test system: S. typhimurium 7731; test: microbe, parasite or virus in culture; format: cell-based, Salmonella typhimurium
Protocol: as §1

[4] = test system: S. aureus 29213; test: microbe, parasite or virus in culture; format: cell-based, Staphylococcus aureus
Protocol: as §1

[5] = test system: S. epidermidis 12228; test: microbe, parasite or virus in culture; format: cell-based, Staphyfococcus epidermidis
Protocol: as §1

[6] = test system: P. aeruginosa 27853; test: microbe, parasite or virus in culture; format: cell-based, Pseudomonas aeruginosa
Protocol: as §1

[7] = test system: P. auruginosa 10419; test: microbe, parasite or virus in culture; format: cell-based, Pseudomonas aeruginosa
Protocol: as §1

[8] = test system: P. auruginosa 21625; test: microbe, parasite or virus in culture; format: cell-based, Pseudomonas aeruginosa
Protocol: as §1

[9] = test system: P. auruginosa 21630; test: microbe, parasite or virus in culture; format: cell-based, Pseudomonas aeruginosa
Protocol: as §1

[10] = test system: P. auruginosa LC; test: microbe, parasite or virus in culture; format: cell-based, Pseudomonas aeruginosa
Protocol: as §1

[11] = test system: P. auruginosa LCCE (ceftazidime-resistant strain); test: microbe, parasite or virus in culture
Protocol: as §1
(§2) The antimicrobial activity of the RI16 and mutant peptides against Gram-negative and Gram-positive bacteria were determined.

[12] = test system: P. auruginosa LCCI (ciprofloxacin-resistant strain); test: microbe, parasite or virus in culture
Protocol: as §1, §2

[13] = test system: P. auruginosa LCGE (gentamincin-resistant strain); test: microbe, parasite or virus in culture
Protocol: as §1, §2

[14] = test system: Female KM mice; test: In vivo toxicity; set-up: species or system Chinese Kun Ming (KM) mice; conditions: intraperitoneal injection, 3, 6, 30 or 60 mg per kg of body weight, 10/group
Protocol: The in vivo toxicity of the peptide was also evaluated. Female KM mice (weighing 20 to 25 g) were injected intraperitoneally with 0.1 ml saline and 3, 6, 30, and 60 mg peptide per kg of body weight. The animals (10/group) were directly inspected for adverse effects, such as weight loss, piloerection, motility and mortality for 7 days thereafter. All mice were allowed free water and a maintenance diet in a 12-hour light/dark cycle. All cages contained wood shavings and bedding. The experiment was carried out in strict accordance with the recommendations of the Guide for the Care and Use of Laboratory Animals of Northeast Agricultural University, and the study protocol was approved by Northeast Agricultural University Institutional Animal Care and Use Committee. The mice were monitored for a week and no mice died during the experiment.

Question: What does the source list for “LL37: the only host defense peptide encoded by the human cathelicidin gene, which eliminates bacteria by targeting membranes (LLGDFFRKSKEKIGKEFKRIVQRIKDFLRNLVPRTES; Antibacterial peptide LL-37; UniProt P49913 134-170, looked up)”?
Answer: Biofilm biomass of pre-formed biofilms ([1]; P. aeruginosa 27853, 24 h treatment, various concentrations, crystal violet, absorbance 600 nm, relative to untreated control, Fig. 6A): reduced; Cell densities in the biofilms (FE-SEM) ([1]; P. aeruginosa 27853 biofilms, peptides at 4×MIC, Fig. 6B): significantly reduced

Question: How did the MIC [2]; 25922 turn out when CC[C@H](C)[C@H](NC(=O)[C@H](CCCCN)NC(=O)[C@H](CCCCN)NC(=O)[C@H](CC(C)C)NC(=O)[C@H](CCCNC(=N)N)NC(=O)[C@H](CCCCN)NC(=O)[C@H](CCCNC(=N)N)NC(=O)[C@H](Cc1c[nH]c2ccccc12)NC(=O)[C@H](CCCCN)NC(=O)[C@H](CCCCN)NC(=O)[C@H](CCCNC(=N)N)NC(=O)[C@H](CC(C)C)NC(=O)[C@H](CCCNC(=N)N)NC(=O)[C@H](CCCNC(=N)N)NC(=O)[C@H](Cc1ccccc1)NC(=O)[C@@H](N)CCCNC(=N)N)C(N)=O [T9W] (H-RFRRLRKKWRKRLKKI-NH2) was run?
Answer: 64 µM (≈ 145 µg/mL)

Question: And the MBC ([2]; 25922, 18 h)?
Answer: >128 µM

Question: And the MIC [3]; 7731?
Answer: 128 µM (≈ 290 µg/mL)

Question: And the MBC ([3]; 7731, 18 h)?
Answer: >128 µM

Question: And the MIC [4]; 29213?
Answer: 128 µM (≈ 290 µg/mL)

Question: What about the MBC ([4]; 29213, 18 h) of the same compound?
Answer: >128 µM

Question: And the MIC [5]; 12228?
Answer: 64 µM (≈ 145 µg/mL)

Question: And the MBC ([5]; 12228, 18 h)?
Answer: >128 µM

Question: What about the MIC [6]; 27853 of the same compound?
Answer: 2 µM (≈ 4.54 µg/mL)

Question: And the MBC ([6]; 27853, 18 h)?
Answer: 2 µM (≈ 4.54 µg/mL)

Question: And the MIC [7]?
Answer: 4 µM (≈ 9.07 µg/mL)

Question: And the MBC ([7]; 18 h)?
Answer: 4 µM (≈ 9.07 µg/mL)

Question: What about the MIC [8] of the same compound?
Answer: 4 µM (≈ 9.07 µg/mL)

Question: What about the MBC ([8]; 18 h) of the same compound?
Answer: 4 µM (≈ 9.07 µg/mL)

Question: And the MIC [9]?
Answer: 4 µM (≈ 9.07 µg/mL)

Question: And the MBC ([9]; 18 h)?
Answer: 4 µM (≈ 9.07 µg/mL)

Question: And the MIC [10]?
Answer: 1 µM (≈ 2.27 µg/mL)

Question: And the MBC ([10]; 18 h)?
Answer: 2 µM (≈ 4.54 µg/mL)

Question: What about the MIC [11] of the same compound?
Answer: 4 µM (≈ 9.07 µg/mL)

Question: What about the MBC ([11]; 18 h) of the same compound?
Answer: 8 µM (≈ 18.1 µg/mL)

Question: And the MIC [12]?
Answer: 2 µM (≈ 4.54 µg/mL)

Question: What about the MBC ([12]; 18 h) of the same compound?
Answer: 4 µM (≈ 9.07 µg/mL)

Question: And the MIC [13]?
Answer: 4 µM (≈ 9.07 µg/mL)

Question: What about the MBC ([13]; 18 h) of the same compound?
Answer: 8 µM (≈ 18.1 µg/mL)

Question: What about the “Signs of toxicity (weight loss, piloerection, motility)” value ([14]; 7 days, data not shown) of the same compound?
Answer: no signs of toxicity

Question: And the Survival ([14]; at least 7 days)?
Answer: all survived
